Test results reported in patent publication US20180290961A1, “METHOD AND SYSTEM FOR OBTAINING A CARBOXYLIC ACID WHICH IS PRODUCED IN A FERMENTATION PROCESS” (THYSSENKRUPP INDUSTRIAL SOLUTIONS AG, priority 2015, published 2018).

Legend:
physchem = conditions: 20 °C, water
[1] = precipitation of fermentatively prepared carboxylic acid after acidification; assay type: physicochemical
From the text: The invention is based on the observation that sparingly soluble carboxylic acids such as fumaric acid and adipic acid cannot be worked up satisfactorily using the known purification methods. […] In order to compensate for the resulting loss of product, alternative purification methods are necessary.

| Structure (SMILES) | solubility (physchem) | concentration above which the acid precipitates after acidification [1] |
| --- | --- | --- |
| O=C(O)/C=C/C(=O)O [fumaric acid] | ≤ 15 mg/mL | about 5 g/l |
| N[C@@H](Cc1c[nH]cn1)C(=O)O [histidine] | ≤ 50 mg/mL | – |
| CC[C@H](C)[C@H](N)C(=O)O [isoleucine] | ≤ 50 mg/mL | – |
| CC(C)C[C@H](N)C(=O)O [leucine] | ≤ 50 mg/mL | – |
| CSCC[C@H](N)C(=O)O [methionine] | ≤ 50 mg/mL | – |
| N[C@@H](Cc1ccccc1)C(=O)O [phenylalanine] | ≤ 50 mg/mL | – |
| O=C(O)c1ccccc1O [salicylic acid] | ≤ 15 mg/mL | – |
